Values quoted from earlier work, collected in PubChem BioAssay AID1259409 (Chemical Carcinogenesis Research Information System (CCRIS), 2018).

Test system: rodent chemically induced tumor inhibition, incidence and multiplicity
Assay: CCRIS tumor inhibitor studies
Settings: Dose [Inhibitor]: 0, Promoter: NONE USED

In the case of `Cn1c(=O)c2c(ncn2C)n(C)c1=O`, the “tumour outcome (control, treated, inhibition, significance)” value (Carcinogen: 7,12-DIMETHYLBENZ[A]ANTHRACENE, 57-97-6, 500 MG/L IN DRINKING WATER OF 58 DAY OLD VIRGIN RATS (STUDY DURATION: 56 WK), Route [Inhibitor]: ORAL, Species: RAT, Strain/Sex: SPRAGUE-DAWLEY/FEMALE, Target Tissue: Type of Lesion: MAMMARY GLAND: FIBROADENOMA, Dose [Carcinogen]: 2 MG/100 G BW ONCE AT 55 D OF AGE) is given as 86%, 68%, 21%, not significant, the “tumour outcome (control, treated, inhibition, significance)” value (Carcinogen: 7,12-DIMETHYLBENZ[A]ANTHRACENE, 57-97-6, 500 MG/L IN DRINKING WATER OF 150 DAY OLD PAROUS RATS (STUDY DURATION: 165 D), Route [Inhibitor]: ORAL, Species: RAT, Strain/Sex: SPRAGUE-DAWLEY/FEMALE, Target Tissue: Type of Lesion: MAMMARY GLAND: CARCINOMA, Dose [Carcinogen]: 20 MG/ML IN CORN OIL ONCE AT 135 D OF AGE) is given as 21%, 3%, 86%, not calculated and the “tumour outcome (control, treated, inhibition, significance)” value (Carcinogen: 7,12-DIMETHYLBENZ[A]ANTHRACENE, 57-97-6, 500 MG/L IN DRINKING WATER OF 150 DAY OLD PAROUS RATS (STUDY DURATION: 165 D), Route [Inhibitor]: ORAL, Species: RAT, Strain/Sex: SPRAGUE-DAWLEY/FEMALE, Target Tissue: Type of Lesion: MAMMARY GLAND: FIBROADENOMA, Dose [Carcinogen]: 20 MG/ML IN CORN OIL ONCE AT 135 D OF AGE) is given as 62%, 40%, 35%, not significant. The “tumour outcome (control, treated, inhibition, significance)” value (Carcinogen: 7,12-DIMETHYLBENZ[A]ANTHRACENE, 57-97-6, 500 MG/L IN DRINKING WATER OF 150 DAY OLD VIRGIN RATS (STUDY DURATION: 165 D), Route [Inhibitor]: ORAL, Species: RAT, Strain/Sex: SPRAGUE-DAWLEY/FEMALE, Target Tissue: Type of Lesion: MAMMARY GLAND: CARCINOMA, Dose [Carcinogen]: 20 MG/ML IN CORN OIL ONCE AT 135 D OF AGE) was 45%, 20%, 56%, p<0.05, the “tumour outcome (control, treated, inhibition, significance)” value (Carcinogen: 7,12-DIMETHYLBENZ[A]ANTHRACENE, 57-97-6, 500 MG/L IN DRINKING WATER OF 150 DAY OLD VIRGIN RATS (STUDY DURATION: 165 D), Route [Inhibitor]: ORAL, Species: RAT, Strain/Sex: SPRAGUE-DAWLEY/FEMALE, Target Tissue: Type of Lesion: MAMMARY GLAND: FIBROADENOMA, Dose [Carcinogen]: 20 MG/ML IN CORN OIL ONCE AT 135 D OF AGE) was 72%, 43%, 40%, p<0.05 and the “tumour outcome (control, treated, inhibition, significance)” value (Carcinogen: 17BETA-ESTRADIOL, 50-28-2, PROGESTERONE, 57-83-0, Carcinogen: 17BETA-ESTRADIOL, 50-28-2, PROGESTERONE, 57-83-0, 500 MG/L IN DISTILLED DRINKING WATER FOR 23 WK BEGINNING 1 WK POST FIRST CARCINOGEN DOSE (STUDY DURATION: 24 WK), Route [Inhibitor]: ORAL, Species: MOUSE, Strain/Sex: GR/A/FEMALE, Target Tissue: Type of Lesion: MAMMARY GLAND: TUMOR, Dose [Carcinogen]: 0.5 MG/L 17BETA-ESTRADIOL IN DRINKING WATER FOR 24 WK AND 30 MG PROGESTERONE IN PELLETS RENEWED EVERY 30 D FOR 24 WK) was 55/55 (100%), 52/55 (95%), 5%, not significant. The “tumour outcome (control, treated, inhibition, significance)” value (Carcinogen: 17BETA-ESTRADIOL, 50-28-2, PROGESTERONE, 57-83-0, Carcinogen: 17BETA-ESTRADIOL, 50-28-2, PROGESTERONE, 57-83-0, 500 MG/L IN DISTILLED DRINKING WATER FOR 23 WK BEGINNING 1 WK POST FIRST CARCINOGEN DOSE (STUDY DURATION: 24 WK), Route [Inhibitor]: ORAL, Species: MOUSE, Strain/Sex: GRS/SN/FEMALE, Target Tissue: Type of Lesion: MAMMARY GLAND: TUMOR, Dose [Carcinogen]: 0.5 MG/L 17BETA-ESTRADIOL IN DRINKING WATER FOR 24 WK AND 30 MG PROGESTERONE IN PELLETS RENEWED EVERY 30 D FOR 24 WK) was 46/47 (98%), 44/45 (98%), 0%, not significant, the “tumour outcome (control, treated, inhibition, significance)” value (Carcinogen: BENZO[A]PYRENE, 50-32-8, 1 MG/D FOR 6 WK (STUDY DURATION: 9 WK), Route [Inhibitor]: GAVAGE, Species: MOUSE, Strain/Sex: NIGP(S)/FEMALE, Target Tissue: Type of Lesion: LUNG: ADENOMA, Dose [Carcinogen]: 0.5 MG INJECTED IN THE SCAPULAR REGION OF NEWBORN MICE ONCE) was 35%, 21%, 40%, not calculated and the “tumour outcome (control, treated, inhibition, significance)” value (Carcinogen: BENZO[A]PYRENE, 50-32-8, 1 MG/D FOR 6 WK (STUDY DURATION: 9 WK), Route [Inhibitor]: GAVAGE, Species: MOUSE, Strain/Sex: NIGP(S)/MALE, Target Tissue: Type of Lesion: LUNG: ADENOMA, Dose [Carcinogen]: 0.5 MG INJECTED IN THE SCAPULAR REGION OF NEWBORN MICE ONCE) was 48%, 18%, 63%, not calculated. The “tumour outcome (control, treated, inhibition, significance)” value (Carcinogen: BENZO[A]PYRENE, 50-32-8, 2 MG/D FOR 6 WK (STUDY DURATION: 9 WK), Route [Inhibitor]: GAVAGE, Species: MOUSE, Strain/Sex: NIGP(S)/FEMALE, Target Tissue: Type of Lesion: LUNG: ADENOMA, Dose [Carcinogen]: 0.5 MG INJECTED IN THE SCAPULAR REGION OF NEWBORN MICE ONCE) was 35%, 5%, 86%, not calculated, the “tumour outcome (control, treated, inhibition, significance)” value (Carcinogen: BENZO[A]PYRENE, 50-32-8, 2 MG/D FOR 6 WK (STUDY DURATION: 9 WK), Route [Inhibitor]: GAVAGE, Species: MOUSE, Strain/Sex: NIGP(S)/MALE, Target Tissue: Type of Lesion: LUNG: ADENOMA, Dose [Carcinogen]: 0.5 MG INJECTED IN THE SCAPULAR REGION OF NEWBORN MICE ONCE) was 48%, 5%, 90%, not calculated and the “tumour outcome (control, treated, inhibition, significance)” value (Carcinogen: DIETHYLNITROSAMINE, 55-18-5, 300 MG/L IN DRINKING WATER BEGINNING 3 D PRIOR TO FIRST CARCINOGEN DOSE AND CONTINUING TO 14 D POST LAST CARCINOGEN D, Route [Inhibitor]: ORAL, Species: RAT, Strain/Sex: BD6/FEMALE, Target Tissue: Type of Lesion: ESOPHAGUS: TUMOR, Dose [Carcinogen]: 80 MG/KG BW 1/WK FOR 9 WK) was 50%, 54%, -8%, not significant. The “tumour outcome (control, treated, inhibition, significance)” value (Carcinogen: DIETHYLNITROSAMINE, 55-18-5, 300 MG/L IN DRINKING WATER BEGINNING 3 D PRIOR TO FIRST CARCINOGEN DOSE AND CONTINUING TO 14 D POST LAST CARCINOGEN D, Route [Inhibitor]: ORAL, Species: RAT, Strain/Sex: BD6/FEMALE, Target Tissue: Type of Lesion: LIVER: TUMOR, Dose [Carcinogen]: 80 MG/KG BW 1/WK FOR 9 WK) was 100%, 95%, 5%, not significant.
